Experimental data from US11272709B2, “Amidine substituted benzoyl derivatives useful as herbicides” (Syngenta Participations AG, priority 2018, dated 2022).

Assays:
Format in all cases: in vivo
Conditions in all cases: evaluated after 13 days
[1] = system: Amaranthus retoflexus (AMARE); experiment: Pre-emergence herbicidal glasshouse test, Amaranthus retoflexus (AMARE)
Summary of the method: (§1)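 Plants sprayed 1 day (pre-emergence) or 8 days (post-emergence) after sowing, at 500 g/h unless indicated, in acetone/water (50:50) with 0.5% Tween 20. Glasshouse 24/16 °C, 14 h light, 65% humidity. Damage scored at 13 days on a five-point scale (5=80-100% to 1=0-19%).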

[2] = system: Abutilon theophrasti (ABUTH); experiment: Pre-emergence herbicidal glasshouse test, Abutilon theophrasti (ABUTH)
Summary of the method: as §1

Setaria faberi (SETFA) [3] = experiment: Pre-emergence herbicidal glasshouse test, Setaria faberi (SETFA)
Summary of the method: as §1

[4] = system: Echinochloa crus-galli (ECHCG); experiment: Pre-emergence herbicidal glasshouse test, Echinochloa crus-galli (ECHCG)
Summary of the method: as §1

[5] = system: Ipomoea hederacea (IPOHE); experiment: Pre-emergence herbicidal glasshouse test, Ipomoea hederacea (IPOHE)
Summary of the method: as §1

[6] = system: Amaranthus retoflexus (AMARE); experiment: Post-emergence herbicidal glasshouse test, Amaranthus retoflexus (AMARE)
Summary of the method: as §1

[7] = system: Abutilon theophrasti (ABUTH); experiment: Post-emergence herbicidal glasshouse test, Abutilon theophrasti (ABUTH)
Summary of the method: as §1

Setaria faberi (SETFA) [8] = experiment: Post-emergence herbicidal glasshouse test, Setaria faberi (SETFA)
Summary of the method: as §1

[9] = system: Echinochloa crus-galli (ECHCG); experiment: Post-emergence herbicidal glasshouse test, Echinochloa crus-galli (ECHCG)
Summary of the method: as §1

[10] = system: Ipomoea hederacea (IPOHE); experiment: Post-emergence herbicidal glasshouse test, Ipomoea hederacea (IPOHE)
Summary of the method: as §1

SMILES	PRE Application AMARE, percentage damage (five point scale) ([1]; 500 g/h)	PRE Application ABUTH, percentage damage (five point scale) ([2]; 500 g/h)	PRE Application SETFA, percentage damage (five point scale) (Setaria faberi (SETFA) [3]; 500 g/h)	PRE Application ECHCG, percentage damage (five point scale) ([4]; 500 g/h)	PRE Application IPOHE, percentage damage (five point scale) ([5]; 500 g/h)	POST Application AMARE, percentage damage (five point scale) ([6]; 500 g/h)	POST Application ABUTH, percentage damage (five point scale) ([7]; 500 g/h)	POST Application SETFA, percentage damage (five point scale) (Setaria faberi (SETFA) [8]; 500 g/h)	POST Application ECHCG, percentage damage (five point scale) ([9]; 500 g/h)	POST Application IPOHE, percentage damage (five point scale) ([10]; 500 g/h)	PRE Application AMARE, percentage damage (five point scale) ([1]; applied at 250 g/ha)	PRE Application ABUTH, percentage damage (five point scale) ([2]; applied at 250 g/ha)	PRE Application SETFA, percentage damage (five point scale) (Setaria faberi (SETFA) [3]; applied at 250 g/ha)	PRE Application ECHCG, percentage damage (five point scale) ([4]; applied at 250 g/ha)	PRE Application IPOHE, percentage damage (five point scale) ([5]; applied at 250 g/ha)	POST Application AMARE, percentage damage (five point scale) ([6]; applied at 250 g/ha)	POST Application ABUTH, percentage damage (five point scale) ([7]; applied at 250 g/ha)	POST Application SETFA, percentage damage (five point scale) (Setaria faberi (SETFA) [8]; applied at 250 g/ha)	POST Application ECHCG, percentage damage (five point scale) ([9]; applied at 250 g/ha)	POST Application IPOHE, percentage damage (five point scale) ([10]; applied at 250 g/ha)
Cc1nnc(NC(=O)c2ccc(C(F)(F)F)c(N=CN3CCCC3)c2Cl)o1 [Compound 2.132]	5 (5=80-100%)	5 (5=80-100%)	5 (5=80-100%)	5 (5=80-100%)	5 (5=80-100%)	5 (5=80-100%)	5 (5=80-100%)	5 (5=80-100%)	5 (5=80-100%)	5 (5=80-100%)										
Cc1nnc(NC(=O)c2ccc(C(F)(F)F)c(N=CN(C)C(C)C)c2Cl)o1 [Compound 2.140]	5 (5=80-100%)	5 (5=80-100%)	5 (5=80-100%)	5 (5=80-100%)	4 (4=60-79%)	5 (5=80-100%)	5 (5=80-100%)	5 (5=80-100%)	5 (5=80-100%)	4 (4=60-79%)										
Cc1nnc(NC(=O)c2ccc(S(C)(=O)=O)c(N=CN(C)CC(F)(F)F)c2Cl)o1 [Compound 2.142]											5 (5=80-100%)	3 (3=40-59%)	5 (5=80-100%)	5 (5=80-100%)	1 (1=0-19%)	5 (5=80-100%)	5 (5=80-100%)	5 (5=80-100%)	5 (5=80-100%)	5 (5=80-100%)
Cc1nnc(NC(=O)c2ccc(S(C)(=O)=O)c(N=CN(C)CC(F)(F)F)c2C)o1 [Compound 2.143]	5 (5=80-100%)	5 (5=80-100%)	5 (5=80-100%)	5 (5=80-100%)	5 (5=80-100%)	5 (5=80-100%)	5 (5=80-100%)	5 (5=80-100%)	5 (5=80-100%)	5 (5=80-100%)										
Cc1nnc(NC(=O)c2ccc(S(C)(=O)=O)c(N=CN(C)C(C)C)c2C)o1 [Compound 2.144]	5 (5=80-100%)	5 (5=80-100%)	5 (5=80-100%)	5 (5=80-100%)	3 (3=40-59%)	5 (5=80-100%)	5 (5=80-100%)	5 (5=80-100%)	5 (5=80-100%)	4 (4=60-79%)										
